Experimental data published in PMC7347136 (PLoS ONE, 2020).

Experiments:
Experiment in all cases: Carna kinase panel screen
Assay type in all cases: biochemical
Settings in all cases: read-out: % Inhibition ± SD
[1] = target: T1, AXL (Homo sapiens, UniProt P30530)
T1 construct: purchased Carna Biosciences
Method: (§1) IC50 values were determined from a 10-point concentration curve using ATP concentrations approximating Km values. […] The percentage inhibition of each test solution was calculated, which allowed the IC50 value to be determined from concentration versus percentage inhibition curves by fitting to a four parameter logistic curve.

[2] = target: T2, AurC (Homo sapiens, UniProt Q9UQB9)
T2 construct: purchased Carna Biosciences
Method: as §1

[3] = target: T3, BLK (Homo sapiens, UniProt P51451)
T3 construct: purchased Carna Biosciences
Method: as §1

[4] = target: T4, BTK (Homo sapiens, UniProt Q06187)
T4 construct: purchased Carna Biosciences
Method: as §1

[5] = target: T5, CDK7 (Homo sapiens, UniProt P50613)
T5 construct: purchased Carna Biosciences
Method: as §1

[6] = target: T6, CK1e (Homo sapiens, UniProt P49674)
T6 construct: purchased Carna Biosciences
Method: as §1

[7] = target: T7, CLK2 (Homo sapiens, UniProt P49760)
T7 construct: purchased Carna Biosciences
Method: as §1

[8] = target: T8, DAPK1 (Homo sapiens, UniProt P53355)
T8 construct: purchased Carna Biosciences
Method: as §1

[9] = target: T9, EEF2K (Homo sapiens, UniProt O00418)
T9 construct: purchased Carna Biosciences
Method: as §1

[10] = target: T10, EphA1 (Homo sapiens, UniProt P21709)
T10 construct: purchased Carna Biosciences
Method: as §1

[11] = target: T11, EphB1 (Homo sapiens, UniProt P54762)
T11 construct: purchased Carna Biosciences
Method: as §1

[12] = target: T12, Erk2 (Homo sapiens, UniProt P28482)
T12 construct: purchased Carna Biosciences
Method: as §1

[13] = target: T13, Erk5 (Homo sapiens, UniProt Q13164)
T13 construct: purchased Carna Biosciences
Method: as §1

[14] = target: T14, FER (Homo sapiens, UniProt P16591)
T14 construct: purchased Carna Biosciences
Method: as §1

[15] = target: T15, FGFR3[K650E] (Homo sapiens, UniProt P22607, K650E)
T15 construct: purchased Carna Biosciences
Method: as §1

[16] = target: T16, FLT4 (Homo sapiens, UniProt P35916)
T16 construct: purchased Carna Biosciences
Method: as §1

[17] = target: T17, GSK3b (Homo sapiens, UniProt P49841)
T17 construct: purchased Carna Biosciences
Method: as §1

[18] = target: T18, HIPK3 (Homo sapiens, UniProt Q9H422)
T18 construct: purchased Carna Biosciences
Method: as §1

[19] = target: T19, IKKa (Homo sapiens, UniProt O15111)
T19 construct: purchased Carna Biosciences
Method: as §1

[20] = target: T20, IKKe (Homo sapiens, UniProt Q14164)
T20 construct: purchased Carna Biosciences
Method: as §1

[21] = target: T21, IRAK1 (Homo sapiens, UniProt P51617)
T21 construct: purchased Carna Biosciences
Method: as §1

[22] = target: T22, KIT (Homo sapiens, UniProt P10721)
T22 construct: purchased Carna Biosciences
Method: as §1

[23] = target: T23, KIT[T670I] (Homo sapiens, UniProt P10721, T670I)
T23 construct: purchased Carna Biosciences
Method: as §1

[24] = target: T24, LCK (Homo sapiens, UniProt P06239)
T24 construct: purchased Carna Biosciences
Method: as §1

[25] = target: T25, LOK (Homo sapiens, UniProt O94804)
T25 construct: purchased Carna Biosciences
Method: as §1

[26] = target: T26, MAP2K3 (Homo sapiens, UniProt P46734)
T26 construct: purchased Carna Biosciences
Method: as §1

[27] = target: T27, MAPKAPK2 (Homo sapiens, UniProt P49137)
T27 construct: purchased Carna Biosciences
Method: as §1

[28] = target: T28, MER (Homo sapiens, UniProt Q12866)
T28 construct: purchased Carna Biosciences
Method: as §1

[29] = target: T29, MET (Homo sapiens, UniProt P08581)
T29 construct: purchased Carna Biosciences
Method: as §1

[30] = target: T30, MGC42105 (Homo sapiens, UniProt Q8IY84)
T30 construct: purchased Carna Biosciences
Method: as §1

[31] = target: T31, NEK1 (Homo sapiens, UniProt Q96PY6)
T31 construct: purchased Carna Biosciences
Method: as §1

[32] = target: T32, NEK7 (Homo sapiens, UniProt Q8TDX7)
T32 construct: purchased Carna Biosciences
Method: as §1

[33] = target: T33, PDGFRa[T674I] (Homo sapiens, UniProt P16234, T674I)
T33 construct: purchased Carna Biosciences
Method: as §1

[34] = target: T34, PDK1 (Homo sapiens, UniProt O15530)
T34 construct: purchased Carna Biosciences
Method: as §1

[35] = target: T35, PKCb2 (Homo sapiens, UniProt P05771)
T35 construct: purchased Carna Biosciences
Method: as §1

[36] = target: T36, PKD3 (Homo sapiens, UniProt O94806)
T36 construct: purchased Carna Biosciences
Method: as §1

[37] = target: T37, PLK2 (Homo sapiens, UniProt Q9NYY3)
T37 construct: purchased Carna Biosciences
Method: as §1

[38] = target: T38, SGK3 (Homo sapiens, UniProt Q96BR1)
T38 construct: purchased Carna Biosciences
Method: as §1

[39] = target: T39, SRC (Homo sapiens, UniProt P12931)
T39 construct: purchased Carna Biosciences
Method: as §1

[40] = target: T40, SRPK1 (Homo sapiens, UniProt Q96SB4)
T40 construct: purchased Carna Biosciences
Method: as §1

[41] = target: T41, SRPK2 (Homo sapiens, UniProt P78362)
T41 construct: purchased Carna Biosciences
Method: as §1

[42] = target: T42, TIE2 (Homo sapiens, UniProt Q02763)
T42 construct: purchased Carna Biosciences
Method: as §1

[43] = target: T43, TRKC (Homo sapiens, UniProt Q16288)
T43 construct: purchased Carna Biosciences
Method: as §1

T22 sequence (P10721 26-976): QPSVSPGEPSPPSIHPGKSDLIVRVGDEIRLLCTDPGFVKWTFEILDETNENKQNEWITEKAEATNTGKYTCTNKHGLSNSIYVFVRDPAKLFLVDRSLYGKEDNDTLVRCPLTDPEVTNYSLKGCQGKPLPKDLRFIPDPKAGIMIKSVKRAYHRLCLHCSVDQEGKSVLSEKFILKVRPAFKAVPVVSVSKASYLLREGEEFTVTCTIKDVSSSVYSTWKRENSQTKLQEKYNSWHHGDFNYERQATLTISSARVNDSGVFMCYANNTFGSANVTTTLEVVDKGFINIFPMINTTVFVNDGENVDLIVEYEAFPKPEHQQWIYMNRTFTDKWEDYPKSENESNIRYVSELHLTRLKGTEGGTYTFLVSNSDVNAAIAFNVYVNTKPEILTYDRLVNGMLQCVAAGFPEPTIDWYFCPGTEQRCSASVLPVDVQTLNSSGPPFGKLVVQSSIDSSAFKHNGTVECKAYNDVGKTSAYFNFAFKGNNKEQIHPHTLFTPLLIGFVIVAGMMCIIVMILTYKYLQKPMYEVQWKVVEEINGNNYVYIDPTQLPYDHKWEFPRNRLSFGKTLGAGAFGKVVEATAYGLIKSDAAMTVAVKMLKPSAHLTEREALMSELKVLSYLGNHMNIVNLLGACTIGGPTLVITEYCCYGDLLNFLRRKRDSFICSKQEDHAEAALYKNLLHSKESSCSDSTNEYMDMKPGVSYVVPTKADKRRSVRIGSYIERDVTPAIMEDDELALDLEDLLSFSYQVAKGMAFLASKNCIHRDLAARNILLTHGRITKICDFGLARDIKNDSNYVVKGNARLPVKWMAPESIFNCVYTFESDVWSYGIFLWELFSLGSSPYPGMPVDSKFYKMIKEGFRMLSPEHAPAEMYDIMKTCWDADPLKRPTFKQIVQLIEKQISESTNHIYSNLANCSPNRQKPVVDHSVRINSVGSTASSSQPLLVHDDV
T5 sequence (P50613 whole entry): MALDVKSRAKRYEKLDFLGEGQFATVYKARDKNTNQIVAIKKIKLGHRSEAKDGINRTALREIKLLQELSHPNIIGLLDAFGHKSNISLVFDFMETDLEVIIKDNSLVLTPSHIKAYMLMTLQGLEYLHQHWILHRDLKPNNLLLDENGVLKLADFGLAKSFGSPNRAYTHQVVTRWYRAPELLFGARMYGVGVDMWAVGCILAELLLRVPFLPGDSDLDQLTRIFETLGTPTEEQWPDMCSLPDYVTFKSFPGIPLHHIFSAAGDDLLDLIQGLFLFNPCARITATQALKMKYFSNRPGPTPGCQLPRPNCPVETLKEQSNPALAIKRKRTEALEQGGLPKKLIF
T5 sequence (P51946 whole entry partner): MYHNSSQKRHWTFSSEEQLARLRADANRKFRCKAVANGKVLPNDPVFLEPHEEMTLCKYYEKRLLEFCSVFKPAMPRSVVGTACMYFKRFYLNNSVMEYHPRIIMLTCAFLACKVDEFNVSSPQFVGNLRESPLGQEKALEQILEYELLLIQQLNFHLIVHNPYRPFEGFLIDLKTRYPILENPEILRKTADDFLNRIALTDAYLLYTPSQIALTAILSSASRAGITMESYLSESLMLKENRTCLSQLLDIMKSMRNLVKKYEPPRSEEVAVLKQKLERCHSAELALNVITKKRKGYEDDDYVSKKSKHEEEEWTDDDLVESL
T5 sequence (P51948 whole entry partner): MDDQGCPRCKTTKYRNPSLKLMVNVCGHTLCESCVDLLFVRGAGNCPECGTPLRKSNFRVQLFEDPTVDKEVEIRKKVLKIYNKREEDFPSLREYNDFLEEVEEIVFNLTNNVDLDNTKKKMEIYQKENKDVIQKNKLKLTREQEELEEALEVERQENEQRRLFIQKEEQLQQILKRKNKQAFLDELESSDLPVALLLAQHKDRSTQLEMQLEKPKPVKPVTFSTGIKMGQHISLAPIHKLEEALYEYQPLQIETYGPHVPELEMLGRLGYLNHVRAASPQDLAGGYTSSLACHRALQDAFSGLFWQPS
T34 sequence (O15530 whole entry): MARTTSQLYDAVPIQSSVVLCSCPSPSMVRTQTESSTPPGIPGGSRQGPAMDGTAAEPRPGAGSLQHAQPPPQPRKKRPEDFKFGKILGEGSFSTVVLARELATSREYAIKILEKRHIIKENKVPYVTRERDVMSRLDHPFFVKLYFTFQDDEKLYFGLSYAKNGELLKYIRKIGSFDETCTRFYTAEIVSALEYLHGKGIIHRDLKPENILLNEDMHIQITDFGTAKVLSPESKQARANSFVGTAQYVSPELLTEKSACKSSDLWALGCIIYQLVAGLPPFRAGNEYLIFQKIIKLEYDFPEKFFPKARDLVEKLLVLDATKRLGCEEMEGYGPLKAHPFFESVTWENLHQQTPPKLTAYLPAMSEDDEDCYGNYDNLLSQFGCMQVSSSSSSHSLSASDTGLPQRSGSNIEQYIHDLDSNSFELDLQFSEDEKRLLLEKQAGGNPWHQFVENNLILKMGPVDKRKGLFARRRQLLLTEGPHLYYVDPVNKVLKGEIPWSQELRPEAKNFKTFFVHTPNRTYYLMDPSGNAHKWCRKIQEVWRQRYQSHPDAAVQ
T12 sequence (P28482 whole entry): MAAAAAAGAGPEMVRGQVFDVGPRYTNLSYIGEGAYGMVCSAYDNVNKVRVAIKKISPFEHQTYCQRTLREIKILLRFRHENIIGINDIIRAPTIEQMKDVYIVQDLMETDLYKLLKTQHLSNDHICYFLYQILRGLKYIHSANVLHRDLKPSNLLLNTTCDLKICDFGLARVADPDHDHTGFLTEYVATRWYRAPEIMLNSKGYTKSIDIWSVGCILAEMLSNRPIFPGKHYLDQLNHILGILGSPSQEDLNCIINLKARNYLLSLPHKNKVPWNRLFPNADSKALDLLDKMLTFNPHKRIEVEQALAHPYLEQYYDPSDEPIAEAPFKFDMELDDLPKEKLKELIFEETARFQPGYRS
T27 sequence (P49137 whole entry): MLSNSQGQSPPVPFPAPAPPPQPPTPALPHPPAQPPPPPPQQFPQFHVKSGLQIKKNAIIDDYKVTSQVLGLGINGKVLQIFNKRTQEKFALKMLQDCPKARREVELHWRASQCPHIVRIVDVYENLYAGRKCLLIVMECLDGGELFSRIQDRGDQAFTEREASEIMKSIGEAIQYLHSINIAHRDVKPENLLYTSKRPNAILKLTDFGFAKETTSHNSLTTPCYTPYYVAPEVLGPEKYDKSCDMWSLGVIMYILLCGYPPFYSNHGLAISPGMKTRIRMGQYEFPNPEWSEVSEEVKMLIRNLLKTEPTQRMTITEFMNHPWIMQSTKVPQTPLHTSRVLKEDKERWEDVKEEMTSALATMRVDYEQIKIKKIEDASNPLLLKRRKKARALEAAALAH
T19 sequence (O15111 whole entry): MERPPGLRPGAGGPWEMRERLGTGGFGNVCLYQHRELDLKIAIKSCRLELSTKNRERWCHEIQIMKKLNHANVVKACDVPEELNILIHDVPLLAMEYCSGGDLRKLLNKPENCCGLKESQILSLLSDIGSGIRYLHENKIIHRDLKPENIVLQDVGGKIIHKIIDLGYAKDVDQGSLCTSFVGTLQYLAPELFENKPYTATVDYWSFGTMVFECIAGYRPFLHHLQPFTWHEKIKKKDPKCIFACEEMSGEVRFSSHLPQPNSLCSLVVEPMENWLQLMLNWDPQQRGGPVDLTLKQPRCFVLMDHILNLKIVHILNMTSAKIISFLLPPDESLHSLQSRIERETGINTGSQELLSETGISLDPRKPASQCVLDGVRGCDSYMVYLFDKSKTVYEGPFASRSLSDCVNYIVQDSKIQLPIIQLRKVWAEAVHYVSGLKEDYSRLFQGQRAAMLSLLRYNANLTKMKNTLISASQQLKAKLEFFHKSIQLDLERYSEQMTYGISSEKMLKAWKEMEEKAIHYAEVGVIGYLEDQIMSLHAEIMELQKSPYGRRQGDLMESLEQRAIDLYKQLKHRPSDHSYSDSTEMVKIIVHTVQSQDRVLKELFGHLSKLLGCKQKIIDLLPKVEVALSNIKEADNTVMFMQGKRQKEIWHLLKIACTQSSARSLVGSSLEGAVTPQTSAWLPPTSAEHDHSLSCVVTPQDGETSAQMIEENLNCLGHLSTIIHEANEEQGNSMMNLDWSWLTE
T32 sequence (Q8TDX7 whole entry): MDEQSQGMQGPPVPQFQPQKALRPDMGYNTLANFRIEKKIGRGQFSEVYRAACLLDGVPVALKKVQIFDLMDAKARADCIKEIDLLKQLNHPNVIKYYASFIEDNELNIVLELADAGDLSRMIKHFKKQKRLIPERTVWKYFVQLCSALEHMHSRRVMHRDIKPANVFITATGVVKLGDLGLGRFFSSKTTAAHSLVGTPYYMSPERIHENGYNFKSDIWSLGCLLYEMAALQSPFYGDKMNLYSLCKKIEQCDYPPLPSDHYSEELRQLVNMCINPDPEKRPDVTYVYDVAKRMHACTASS
T40 sequence (Q96SB4 whole entry): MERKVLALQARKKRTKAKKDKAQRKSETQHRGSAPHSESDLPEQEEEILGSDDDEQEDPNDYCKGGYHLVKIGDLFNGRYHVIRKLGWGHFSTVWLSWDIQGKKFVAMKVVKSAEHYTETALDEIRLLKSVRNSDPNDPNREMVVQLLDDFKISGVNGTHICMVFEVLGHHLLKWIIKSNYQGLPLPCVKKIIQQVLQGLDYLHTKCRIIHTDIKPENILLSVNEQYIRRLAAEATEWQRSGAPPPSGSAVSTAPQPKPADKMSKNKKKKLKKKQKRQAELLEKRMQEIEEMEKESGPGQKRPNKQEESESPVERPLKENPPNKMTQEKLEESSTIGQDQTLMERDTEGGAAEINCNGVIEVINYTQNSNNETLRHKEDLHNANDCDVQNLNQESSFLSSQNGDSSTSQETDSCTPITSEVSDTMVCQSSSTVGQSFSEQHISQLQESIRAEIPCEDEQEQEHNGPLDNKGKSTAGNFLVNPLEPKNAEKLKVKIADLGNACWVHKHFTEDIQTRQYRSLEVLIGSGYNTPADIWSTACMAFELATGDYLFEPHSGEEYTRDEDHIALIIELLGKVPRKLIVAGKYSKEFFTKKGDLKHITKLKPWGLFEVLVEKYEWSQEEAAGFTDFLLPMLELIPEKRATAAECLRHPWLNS
T23 sequence (P10721 26-976 T670I): as the sequence (P10721 26-976) above, with T645I counted along it

## CC[C@H](Nc1nc(NCc2cnc(C)cc2C)c2ncn(C(C)C)c2n1)[C@@H](C)O [Fadraciclib, 2-pentanol, 3-[[6-[[(4,6-dimethyl-3-pyridinyl)methyl]amino]-9-(1-methylethyl)-9Hpurin-2-yl]amino]-, (2R,3S)]
[1]
  inhibition at 1 µM: -11.1 ± 0.1%
[2]
  inhibition at 1 µM: 3 ± 0.2%
[3]
  inhibition at 1 µM: -3.6%
[4]
  inhibition at 1 µM: 5.3 ± 0.4%
[5]
  inhibition at 1 µM: 86.7 ± 10.9%
[6]
  inhibition at 1 µM: 19.8 ± 0.5%
[7]
  inhibition at 1 µM: 87.8 ± 2%
[8]
  inhibition at 1 µM: -8.8 ± 0.1%
[9]
  inhibition at 1 µM: -10.3 ± 0.2%
[10]
  inhibition at 1 µM: 5.1%
[11]
  inhibition at 1 µM: 3.9 ± 0.1%
[12]
  inhibition at 1 µM: 19.6 ± 0.8%
[13]
  inhibition at 1 µM: 3.7 ± 0.1%
[14]
  inhibition at 1 µM: -0.3%
[15]
  inhibition at 1 µM: 5.6%
[16]
  inhibition at 1 µM: 6.3 ± 0.2%
[17]
  inhibition at 1 µM: 23.8 ± 1%
[18]
  inhibition at 1 µM: -1.1%
[19]
  inhibition at 1 µM: 0%
[20]
  inhibition at 1 µM: 2.5 ± 0.1%
[21]
  inhibition at 1 µM: 1.6 ± 0.1%
[22]
  inhibition at 1 µM: -2.4 ± 0.1%
[23]
  inhibition at 1 µM: -9.2 ± 0.2%
[24]
  inhibition at 1 µM: -7.3 ± 0.1%
[25]
  inhibition at 1 µM: -23.8 ± 0.3%
[26]
  inhibition at 1 µM: -12.3 ± 0.3%
[27]
  inhibition at 1 µM: -8.6 ± 0.1%
[28]
  inhibition at 1 µM: -9.1 ± 0.1%
[29]
  inhibition at 1 µM: -8.3 ± 0.1%
[30]
  inhibition at 1 µM: -7.3 ± 0.1%
[31]
  inhibition at 1 µM: -18.3 ± 0.1%
[32]
  inhibition at 1 µM: 0.9%
[33]
  inhibition at 1 µM: -11.4 ± 0.2%
[34]
  inhibition at 1 µM: -5.4 ± 0.1%
[35]
  inhibition at 1 µM: -14.3 ± 0.1%
[36]
  inhibition at 1 µM: -1.4%
[37]
  inhibition at 1 µM: 1%
[38]
  inhibition at 1 µM: 6.2 ± 0.1%
[39]
  inhibition at 1 µM: 2.7%
[40]
  inhibition at 1 µM: 5.9 ± 0.2%
[41]
  inhibition at 1 µM: -3.8 ± 0.1%
[42]
  inhibition at 1 µM: 2.9 ± 0.2%
[43]
  inhibition at 1 µM: 7.2 ± 0.3%
